For eight compounds, IC50 results are on record in patent publication EP1640447A1, “BIOACTIVE PEPTIDE-PRODUCING STRAINS OF i ENTEROCOCCUS FAECALIS /i , BIOACTIVE PEPTIDES AND APPLICATIONS THEREOF” (Grupo Leche Pascual S.A., priority 2003, dated 2004).

pIC50: −log10 of the molar value. Peptide text beside a SMILES is read from it.

The target in the test is T1, Angiotensin Converting Enzyme (ACE) (Oryctolagus cuniculus, UniProt P12822).
T1 sequence (P12822 34-1310): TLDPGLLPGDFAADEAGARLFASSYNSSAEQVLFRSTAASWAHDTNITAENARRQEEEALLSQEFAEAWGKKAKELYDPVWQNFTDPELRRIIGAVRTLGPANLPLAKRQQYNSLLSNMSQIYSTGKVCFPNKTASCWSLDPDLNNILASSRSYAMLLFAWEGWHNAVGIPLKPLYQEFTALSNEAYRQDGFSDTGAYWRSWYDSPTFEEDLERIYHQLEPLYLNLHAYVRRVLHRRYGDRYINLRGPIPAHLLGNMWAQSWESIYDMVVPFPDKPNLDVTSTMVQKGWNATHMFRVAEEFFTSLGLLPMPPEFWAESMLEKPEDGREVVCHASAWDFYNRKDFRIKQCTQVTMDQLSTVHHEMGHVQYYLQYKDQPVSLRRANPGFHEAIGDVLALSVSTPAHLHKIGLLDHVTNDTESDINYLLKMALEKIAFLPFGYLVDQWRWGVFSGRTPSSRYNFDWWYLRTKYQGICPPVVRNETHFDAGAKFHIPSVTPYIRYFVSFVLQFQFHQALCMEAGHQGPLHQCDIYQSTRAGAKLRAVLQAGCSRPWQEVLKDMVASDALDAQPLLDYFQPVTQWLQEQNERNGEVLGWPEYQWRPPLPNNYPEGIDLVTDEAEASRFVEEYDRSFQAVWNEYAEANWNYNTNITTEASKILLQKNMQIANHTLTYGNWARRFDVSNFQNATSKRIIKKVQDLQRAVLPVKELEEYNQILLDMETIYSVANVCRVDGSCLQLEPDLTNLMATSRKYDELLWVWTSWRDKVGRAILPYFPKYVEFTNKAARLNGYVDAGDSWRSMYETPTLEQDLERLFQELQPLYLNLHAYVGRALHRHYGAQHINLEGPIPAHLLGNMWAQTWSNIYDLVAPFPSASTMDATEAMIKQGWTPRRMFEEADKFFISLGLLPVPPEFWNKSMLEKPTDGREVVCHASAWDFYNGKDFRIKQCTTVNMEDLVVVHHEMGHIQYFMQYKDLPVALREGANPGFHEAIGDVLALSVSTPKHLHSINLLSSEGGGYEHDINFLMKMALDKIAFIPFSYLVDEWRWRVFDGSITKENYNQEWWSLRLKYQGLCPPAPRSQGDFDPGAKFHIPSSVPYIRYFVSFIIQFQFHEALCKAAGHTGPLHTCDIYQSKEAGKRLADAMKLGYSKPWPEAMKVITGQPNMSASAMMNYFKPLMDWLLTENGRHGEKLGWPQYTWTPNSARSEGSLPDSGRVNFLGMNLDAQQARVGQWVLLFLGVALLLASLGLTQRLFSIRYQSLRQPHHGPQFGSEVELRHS
The test can be described thus: Measurement of ACE inhibitor activity (ACEI activity), Hip-His-Leu substrate, hippuric acid read at 228 nm. The test is classed as biochemical. Particulars: chemically synthesized peptides, Table 4. Here is the method:
The measurement of ACE activity was performed according to the method disclosed by Cushman and Cheung (Cushman DW, Cheung HS. 1971. Biochem Pharmacol 20:1637-1648) and subsequently modified by Nakamura (Nakamura Y, Yamamoto N, Sakai K et al. 1995. J Dairy Sci 78:777-783). This method is based on the use of Hippuryl-L-Histidyl-L-Leucine (Hip-His-Leu) as substrate given that the action of the ACE on such substrate produced the release of hippuric acid, easily quantifiable by spectrophotometry by absorbance reading at 228 nm (A228) after extraction thereof with ethyl acetate. If the sample to be tested is added to the reaction tube along with the ACE and the substrate, the ACEI activity of the sample tested can be determined. As is mentioned in Example 1.1, during the selection of bacteria the sample used to measure ACEI activity was the supernatant of the fermented milk, subjected to centrifugation at 20,000 x g for 10 minutes and subsequently diluted to half with distilled water.
The substrate solution was formed by 0.1 M sodium borate, 300 mM sodium chloride, 5 mM Hip-His-Leu (Sigma, St. Louis, MO), pH 8.3 at 37°C. The ACE enzyme solution (Sigma, St. Louis, MO) was adjusted to an activity of 0.1 U/mL.
The different reaction mixtures were incubated for 30 minutes at 37°C and subsequently 150 µL of 1 M hydrochloric acid were added in order to stop the reaction and subsequently 1,000 µL, of ethyl acetate in order to extract the hippuric acid. The resulting mixtures were vigorously stirred for 20 seconds and centrifuged at 1,500 x g for 10 minutes in order to separate and collect from each tube the upper phase (ethyl acetate). 750 µL of each upper phase were pipetted into individual tubes, which were introduced in a bath of boiling water under a fume extraction hood until the solvent evaporated. Once the ethyl acetate was eliminated 800 µL of distilled water were added to each tube to dissolve the dry residue smoothly and without stirring. Finally the content of each tube was transferred to quartz cuvettes to read their absorbance at 228 nm. The inhibition percentage (% Inhibition) was calculated by applying the following formula: %Inhibition = ((A)−(B))/((C)−(D)) [formula] wherein (A), (B), (C) and (D) correspond to the absorbances at 228 nm of the solutions indicated in Table 2.
To perform this fermentation example, E. faecalis CECT 5727, E. faecalis CECT 5728, E. faecalis CECT 5826 or E faecalis CECT 5827 may be used indistinctly. The substrate is skimmed bovine milk powder reconstituted in water at 10% and autoclaved ([…] for 20 minutes). First a starter liquid was made, inoculating the substrate with a culture loop such that the initial population was 10^5-10^7 CFU/mL and incubating for 24 hours. 3% by weight of this culture was used as inoculum for the second fermentation which was maintained for 48 hours. Both fermentations were carried out at 30°C. The fermenting process was stopped by pasteurizing the fermented milk [75°C for 1 minute] and the final pasteurized product was used to measure ACEI activity according to the protocol described in Example 1.2, although in this case the fermented milks were subjected to the pasteurization treatment mentioned before being centrifuged at 20,000 x g for 10 minutes. […] Therefore, the final reaction volume is always 160 µL [100 µL of the substrate solution, 20 µL of the ACE solution and 40 µL of the sample to be tested (supernatant at the corresponding dilution with distilled water)].
For orientation: pIC50 means the negative decadic logarithm of the IC50, by convention in mol/L. High values mean a low IC50, low ones a high IC50. Compound `CC(C)C[C@H](NC(=O)[C@@H]1CCCN1C(=O)[C@H](CC(C)C)NC(=O)[C@H](Cc1cnc[nH]1)NC(=O)[C@@H](N)CC(C)C)C(=O)N1CCC[C@H]1C(=O)O` [SEQ. ID. NO: 1, LHLPLP] (H-LHLPLP-OH) gave a pIC50 of 5.27.
The value for `CC(C)C[C@H](NC(=O)[C@@H](N)C(C)C)C(=O)NCC(=O)N1CCC[C@H]1C(=O)N[C@H](C(=O)N[C@@H](CCCNC(=N)N)C(=O)NCC(=O)N1CCC[C@H]1C(=O)N[C@@H](Cc1ccccc1)C(=O)N1CCC[C@H]1C(=O)O)C(C)C` [SEQ. ID. NO: 2, VLGPVRGPFP] (H-VLGPVRGPFP-OH) was 3.86; that for `CC(C)C[C@H](NC(=O)[C@@H]1CCCN1C(=O)[C@H](CC(C)C)NC(=O)[C@@H]1CCCN1C(=O)[C@H](CC(C)C)NC(=O)[C@H](Cc1c[nH]cn1)NC(=O)[C@@H](N)CC(C)C)C(=O)O` [SEQ. ID. NO: 3, LHLPLPL] (H-LHLPLPL-OH) was 3.36; that for `CC[C@H](C)[C@H](NC(=O)[C@@H](NC(=O)[C@@H]1CCCN1C(=O)[C@H](Cc1ccccc1)NC(=O)[C@@H]1CCCN1C(=O)CNC(=O)[C@H](CCCNC(=N)N)NC(=O)[C@@H](N)C(C)C)[C@@H](C)CC)C(=O)N[C@H](C(=O)O)C(C)C` [SEQ. ID. NO: 4, VRGPFPIIV] (H-VRGPFPIIV-OH) was 3.20.
As for `CC(C)[C@H](N)C(=O)N[C@H](C(=O)N[C@H](C(=O)N1CCC[C@H]1C(=O)N1CCC[C@H]1C(=O)N[C@@H](Cc1ccccc1)C(=O)O)C(C)C)C(C)C` [SEQ. ID. NO: 5, VVVPPF] (H-VVVPPF-OH), the figure is less than 3.15; as for `CC(C)C[C@H](N)C(=O)N[C@H](C(=O)N[C@@H](CCC(N)=O)C(=O)N[C@H](C(=O)N1CCC[C@H]1C(=O)N[C@H](C(=O)N[C@H](C(=O)N[C@H](C(=O)N1CCC[C@H]1C(=O)N1CCC[C@H]1C(=O)N[C@@H](Cc1ccccc1)C(=O)O)C(C)C)C(C)C)C(C)C)[C@@H](C)O)[C@@H](C)O` [SEQ. ID. NO: 6, LTQTPVVVPPF] (H-LTQTPVVVPPF-OH), less than 3.15; as for `CC[C@H](C)[C@H](NC(=O)[C@@H](NC(=O)[C@@H]1CCCN1C(=O)[C@H](Cc1ccccc1)NC(=O)[C@@H]1CCCN1C(=O)CNC(=O)[C@H](CCCNC(=N)N)NC(=O)[C@@H](NC(=O)[C@@H]1CCCN1C(=O)CNC(=O)[C@H](CC(C)C)NC(=O)[C@@H](N)C(C)C)C(C)C)[C@@H](C)CC)C(=O)N[C@H](C(=O)O)C(C)C` [SEQ. ID. NO: 7, VLGPVRGPFPIIV] (H-VLGPVRGPFPIIV-OH), less than 3.15.
The compound `CC[C@H](C)[C@H](NC(=O)[C@@H]1CCCN1C(=O)CNC(=O)[C@@H]1CCCN1C(=O)[C@H](Cc1ccccc1)NC(=O)[C@@H]1CCCN1C(=O)[C@H](Cc1ccc(O)cc1)NC(=O)[C@@H](NC(=O)[C@@H](N)CC(C)C)C(C)C)C(=O)N1CCC[C@H]1C(=O)N[C@@H](CC(N)=O)C(=O)N[C@@H](CO)C(=O)N[C@@H](CC(C)C)C(=O)N1CCC[C@H]1C(=O)N[C@@H](CCC(N)=O)C(=O)N[C@@H](CC(N)=O)C(=O)N[C@H](C(=O)N1CCC[C@H]1C(=O)N1CCC[C@H]1C(=O)O)[C@@H](C)CC` [SEQ. ID. NO: 8, LVYPFPGPIPNSLPQNIPP] (H-LVYPFPGPIPNSLPQNIPP-OH) showed a pIC50 of 5.28.
